This is an account of results in paper PMC7769008 (Journal of medicinal chemistry, 2020).

This data set is described as follows: Aqueous solubility.

Consider `CCCn1c(=O)c2ccccc2n2c(=S)n(CN(C)C3CC3)nc12` [Compound 35, 2-((Cyclopropyl(methyl)amino)methyl)-4-propyl-1-thioxo-2,4-di-hydro-[1,2,4]triazolo[4,3-a]quinazolin-5(1H)-one], for which the “Solub. (μg/ml)” value is “Insol”.
